The results in this text go back to patent US10695311B2, “Solution for ophthalmology” (priority 2016, dated 2020).

The test system of data set [1] is lens capsule and hemidesmosomes. Kind of data set: Studies by the inventor with lysine solutions (lens capsule / hemidesmosomes). Conditions: lysine solutions having a lower concentration.
Data set [2] relates to zonula fibers and posterior capsule of donor eyes. Kind of data set: Experiments on donor eyes. The following applies: the corneas of which were used for cornea transfers, L-lysine in the concentration indicated above (0.5-3.5 wt.-%). The text has this:
(§1) The surgical result is therefore permanent; further procedures for treatment of possible capsule fibrosis are rarely or never necessary. The solution according to the invention can be used with every phacoemulsification, with or without lens implantation, to clean the posterior capsule. In this regard, the solution according to the invention can be produced from commercially available L-lysine. In particular, the solution can be present as a flushing solution.

A further data set deals with lens capsule. Kind of data set: Surgical studies within the scope of extracapsular procedures. In kind it is in vivo. The following applies: L-lysine concentrations of up to 5%.
From the text: as §1
When performing the extracapsular operation, it has proven to be practical to apply 1 to 5 ml of the L-lysine according to the invention to the posterior capsule after removal of the cloudy lens core and the subcapsular cortex layer (Cortex lentis), using an anterior-chamber cannula. After a sufficient period of action, the solution is suctioned away and rinsed off. In this regard, the period of action is primarily dependent on the concentration of the solution. For a solution with a concentration of 2 wt.-%, it lies between 30 s and 5 min, preferably at approximately 1 min. The period of action should not amount to more than 5 min, preferably not more than 3 min.

In the case of `NCCCC[C@H](N)C(=O)O` [L-lysine], in data set [1], the “damage to the lens capsule” value was “damage to the lens capsule does not occur” and the “digestion of the hemidesmosomes” value is “digestion of the hemidesmosomes still takes place to a sufficient extent”. Further, the “attack on zonula fibers and posterior capsule” value in data set [2] was “neither the zonula fibers nor the posterior capsule are attacked”. In the data set with lens capsule, the “integrity of lens capsule during and after the procedure” value is “the lens capsule remained intact during and after the procedure”; the “prevention of capsule fibrosis after the procedures” value was “it was possible to prevent capsule fibrosis after the procedures”.
